Laboratory results from paper PMC10531346, “Structural Similarities and Overlapping Activities among Dihydroflavonol 4-Reductase, Flavanone 4-Reductase, and Anthocyanidin Reductase Offer Metabolic Flexibility in the Flavonoid Pathway” (International Journal of Molecular Sciences, 2023).
Several values for one entry are separate records, joined by “and”; a condition that tells them apart may be missing. Equal entries are not always repeated. Where two headings read alike, the source gives them in different places.

Experiments:
PvDFRa [1] = biological target: T1, PvDFRa (Panicum virgatum, UniProt A0A8T0SQV2); assay: Isothermal titration calorimetry, PvDFRa; type: binding; conditions: for ∆H / ∆S: ITC, 298 K
Protocol: In order to obtain thermodynamic parameters for the association, isothermal titration calorimetry (ITC) for PvDFRa was performed (Figure S8, Table 2).
Isothermal Titration Calorimetry: Purified PvDFR was dialyzed to a buffer containing 50 mM Bis-Tris, 50 mM Tricine (pH 6.5), 200 mM NaCl and 2.5% (v/v) glycerol. Substrates were dissolved in the same buffer used for enzyme dialysis. Analysis was conducted utilizing a Microcal ITC 200 (Malvern). […] A total of 22 injections were made, each with a volume of 2 uL. Data analysis was conducted utilizing Origin Software 7 and modeled to the appropriate nonlinear regression.

PvDFRa WT = PvDFRa WT (Panicum virgatum, UniProt A0A8T0SQV2); assay: Enzyme kinetic assay, wild-type PvDFRa; type: biochemical; conditions: for substrate inhibition at higher substrate concentrations: KI much greater than Km, could not be quantified
Protocol: (§1) Kinetic Assays of PvDFRa, SbDFR3, mutant PvDFRa, and SbFNRs: DFR was purified to the same purity as used in crystallization. Enzymatic assay followed the methodology previously reported with small changes. A solution of 0.1 M potassium phosphate at pH 7.0 was utilized, and substrate concentration was varied from 5 µM to 800 µM. The reaction was initiated with 0.05 mg enzyme in a total reaction volume of 200 µL. […] The reaction proceeded for 15 min. at 25 °C and was terminated by the addition of 600 µL 95:5 (v/v) n-butanol:HCl. […] The reactions were centrifuged for 15 min. at 14,000× g and the supernatant was used to determine product concentrations with a GENESYS™ 10S UV-Vis Spectrophotometer (Thermo Scientific, Waltham, MA, USA). The absorbances of cyanidin delphinidin and pelargonidin were measured at 550, 550, and 528 nm, respectively. The concentrations were determined based on calibrations with reference compounds (Figure S12). […] Data analysis was conducted utilizing GraphPad Prism 8.0.2 using linear regression to model the appropriate model. Error in each data point is shown utilizing the standard deviation.

PvDFRa T143S = PvDFRa T143S (Panicum virgatum, UniProt A0A8T0SQV2, T143S); assay: Enzyme kinetic assay, PvDFRa T143S mutant; type: biochemical; conditions: relative to wild-type PvDFRa
Protocol: (§2) Site-directed mutagenesis was conducted using primers generated with the QuikChange Primer Design (Agilent Santa Clara, CA USA).
as §1

PvDFRa Q242A = PvDFRa Q242A (Panicum virgatum, UniProt A0A8T0SQV2, Q242A); assay: Enzyme kinetic assay, PvDFRa Q242A mutant; type: biochemical; conditions: for kcat: NADPH 2 mM
Protocol: as §2, §1

SbDFR3 [2] = biological target: T2, SbDFR3 (Sorghum bicolor, UniProt C5XVF8); assay: Enzyme kinetic assay, SbDFR3; conditions: NADPH 2 mM
Protocol: as §1

SbFNR1 = SbFNR1 (Sorghum bicolor, UniProt C5YGL7); assay: SbFNR1 activity assay (dihydroflavonols, flavanones, anthocyanidins); type: biochemical; conditions: for activity of SbFNR1 against the substrate: in words; for product yield compared to PvDFRa and SbDFR3: flavanones, long incubation
SbFNR2 = SbFNR2 activity assay (dihydroflavonols, flavanones, anthocyanidins); type: biochemical, Sorghum bicolor; conditions: for activity of SbFNR2 against the substrate: in words; for efficiency relative to the activity of SbANR: anthocyanidin reduction
SbANR = SbANR activity assay (dihydroflavonols, flavanones, anthocyanidins); type: biochemical, Sorghum bicolor; conditions: in words
PvDFRa [3] = biological target: T1, PvDFRa; assay: PvDFRa activity against anthocyanidins (ANR activity); type: biochemical; conditions: anthocyanidin reduction
Protocol: (§3) To measure any overlapping specificity among FNR, DFR, and ANR for anthocyanidins, their activity against cyanidin, pelargonidin, and delphinidin were assayed.
(§4) LC-MS was used to analyze the various flavonoids using a Waters Xevo TQ-MS mass spectrometer interfaced with a Waters Acquity UPLC. […] The chromatographic conditions used were based on. The mobile phase used was a binary gradient of water with 0.1% (v/v) formic acid (Solvent A) and methanol with 0.1% formic acid (Solvent B). The solvent flow rate was 0.2 mL min^-1. and the initial solvent composition was 20% B/80% A and was constant for the first minute following sample injection. Gradient elution was accomplished by increasing the ratio of solvent B to solvent A from 20:80 to 65:35 over 10 min. using a linear gradient, and then increased to 100:0 over the next 4 min. The composition was maintained at 100% B for 5 min., returned to 80%A/20%B over the next 3 min., and held at that ratio for the next 3 min. […]
(§5) Appropriate daughter ions to be used for multiple reaction monitoring (MRM) of (-)-epicatechin were identified by infusing standard and recording spectra. The optimum cone voltage and collision energy of epicatechin were also determined in these infusion experiments. […]

SbDFR3 [4] = biological target: T2, SbDFR3; assay: SbDFR3 activity against anthocyanidins (ANR activity); type: biochemical; conditions: anthocyanidin reduction
Protocol: as §3, §4, §5

Row | SMILES | Kd (PvDFRa [1]) | ∆H (PvDFRa [1]) | ∆S (PvDFRa [1]) | substrate inhibition at higher substrate concentrations (PvDFRa WT) | kcat (PvDFRa Q242A) | kcat (SbDFR3 [2]) | activity of SbFNR1 against the substrate (SbFNR1) | activity of SbFNR2 against the substrate (SbFNR2) | activity of SbANR against the substrate (SbANR) | also measured
1 | O=C1c2c(O)cc(O)cc2O[C@H](c2ccc(O)cc2)[C@H]1O [DHK, dihydrokaempferol] | 26.4 ± 2.26 µM | -6.19 ± 5.54 kcal/mol | 0.854 Cal mol^−1 K^−1 | substrate inhibition was observed | 0.007835 s⁻¹ | 0.0101 s⁻¹ and 0.0101 ± 0.00852 s⁻¹ | no significant activity | no significant activity | no significant activity | increased catalytic efficiency of T143S mutant (PvDFRa T143S): 1.09 fold; higher catalytic efficiency of Q242A mutant (PvDFRa Q242A; relative to wild-type PvDFRa): 1.7 fold; Km (SbDFR3 [2]): 118 ± 22.6 µM
2 | O=C1c2c(O)cc(O)cc2O[C@H](c2cc(O)c(O)c(O)c2)[C@H]1O [DHM, dihydromyricetin] | 21.2 ± 3.26 µM | -9.10 ± 2.45 kcal/mol | −9.14 Cal mol^−1 K^−1 | substrate inhibition was observed | 0.03788 s⁻¹ | 0.07733 s⁻¹ | no significant activity | no significant activity | no significant activity | –
3 | O=C1c2c(O)cc(O)cc2O[C@H](c2ccc(O)c(O)c2)[C@H]1O [DHQ, dihydroquercetin] | 16.9 ± 4.35 µM | -10.77 ± 0.18 kcal/mol | −13.7 Cal mol^−1 K^−1 | substrate inhibition was observed | 0.04285 s⁻¹ | 0.06325 s⁻¹ | no significant activity | no significant activity | no significant activity | increased catalytic efficiency of T143S mutant (PvDFRa T143S): 3.53 fold
4 | O=C1C[C@@H](c2ccc(O)c(O)c2)Oc2cc(O)cc(O)c21 [Eriodictyol, eriodictyol] | 64.9 ± 11.8 µM | -6.23 ± 0.28 kcal/mol | −1.74 Cal mol^−1 K^−1 | substrate inhibition occurred | – | 0.00206 ± 0.000183 s⁻¹ | – | did not display any activity | did not display any activity | kcat for flavanones, given for PvDFRa (PvDFRa WT; NADPH 2 mM): 0.00206 s⁻¹; Km (PvDFRa WT; NADPH 2 mM, pH 7.0, 25 °C): 246 ± 224 µM; kcat (PvDFRa WT; NADPH 2 mM, pH 7.0, 25 °C): 0.01414 ± 0.00932 s⁻¹; kcat (PvDFRa WT; NADPH 2 mM, pH 7.0, 25 °C, listed as eriodictyol): 0.01414 s⁻¹; Km (SbDFR3 [2]): 40.7 ± 31.9 µM; Km (SbDFR3 [2]; read-out: Km): 25.2 µM; product yield compared to PvDFRa and SbDFR3 (SbFNR1): ~ 3%
5 | O=C1C[C@@H](c2ccc(O)cc2)Oc2cc(O)cc(O)c21 [Naringenin, naringenin] | 177 ± 25.3 µM | -4.82 ± 0.39 kcal/mol | 0.986 Cal mol^−1 K^−1 | substrate inhibition occurred | – | – | – | did not display any activity | did not display any activity | kcat for flavanones, given for PvDFRa (PvDFRa WT; NADPH 2 mM): 0.03473 s⁻¹; kcat (PvDFRa WT; NADPH 2 mM, pH 7.0, 25 °C): 0.05915 s⁻¹; product yield compared to PvDFRa and SbDFR3 (SbFNR1): ~ 3%
6 | Oc1cc(O)c2cc(O)c(-c3ccc(O)c(O)c3)[o+]c2c1 [cyanidin] | – | – | – | – | – | – | – | – | – | efficiency relative to the activity of SbANR (SbFNR1; anthocyanidin reduction): 11.9%; efficiency relative to the activity of SbANR (SbFNR2): 7.4%; activity as % of the activity of SbANR (PvDFRa [3]): 0.5%; activity as % of the activity of SbANR (SbDFR3 [4]): 0.9%
7 | Oc1cc(O)c2cc(O)c(-c3cc(O)c(O)c(O)c3)[o+]c2c1 [delphinidin] | – | – | – | – | – | – | neither SbFNR1 nor SbFNR2 displayed any activity | neither SbFNR1 nor SbFNR2 displayed any activity | showed activity | –
8 | Oc1ccc([C@H]2Oc3cc(O)cc(O)c3C[C@H]2O)cc1 [epiafzelchin] | – | – | – | – | – | – | – | – | – | efficiency relative to the activity of SbANR (SbFNR2): 43%
